Key:
BRG-1 = BRG-1 (Homo sapiens, UniProt P51532); assay: ATPase catalytic activity assay (ADP-Glo), BRG-1; settings: for Emax: 1 h, read-out: BRG1 Max % Inhibition, ADP-Glo, 30 nM BRG-1, 400 μM ATP
BRM = BRM (Homo sapiens, UniProt P51531); assay: ATPase catalytic activity assay (ADP-Glo), BRM; settings: 30 nM BRM, 400 μM ATP; for IC50: BRM ATPase: IC50 (uM)
Chain of BRM (P51531 whole entry): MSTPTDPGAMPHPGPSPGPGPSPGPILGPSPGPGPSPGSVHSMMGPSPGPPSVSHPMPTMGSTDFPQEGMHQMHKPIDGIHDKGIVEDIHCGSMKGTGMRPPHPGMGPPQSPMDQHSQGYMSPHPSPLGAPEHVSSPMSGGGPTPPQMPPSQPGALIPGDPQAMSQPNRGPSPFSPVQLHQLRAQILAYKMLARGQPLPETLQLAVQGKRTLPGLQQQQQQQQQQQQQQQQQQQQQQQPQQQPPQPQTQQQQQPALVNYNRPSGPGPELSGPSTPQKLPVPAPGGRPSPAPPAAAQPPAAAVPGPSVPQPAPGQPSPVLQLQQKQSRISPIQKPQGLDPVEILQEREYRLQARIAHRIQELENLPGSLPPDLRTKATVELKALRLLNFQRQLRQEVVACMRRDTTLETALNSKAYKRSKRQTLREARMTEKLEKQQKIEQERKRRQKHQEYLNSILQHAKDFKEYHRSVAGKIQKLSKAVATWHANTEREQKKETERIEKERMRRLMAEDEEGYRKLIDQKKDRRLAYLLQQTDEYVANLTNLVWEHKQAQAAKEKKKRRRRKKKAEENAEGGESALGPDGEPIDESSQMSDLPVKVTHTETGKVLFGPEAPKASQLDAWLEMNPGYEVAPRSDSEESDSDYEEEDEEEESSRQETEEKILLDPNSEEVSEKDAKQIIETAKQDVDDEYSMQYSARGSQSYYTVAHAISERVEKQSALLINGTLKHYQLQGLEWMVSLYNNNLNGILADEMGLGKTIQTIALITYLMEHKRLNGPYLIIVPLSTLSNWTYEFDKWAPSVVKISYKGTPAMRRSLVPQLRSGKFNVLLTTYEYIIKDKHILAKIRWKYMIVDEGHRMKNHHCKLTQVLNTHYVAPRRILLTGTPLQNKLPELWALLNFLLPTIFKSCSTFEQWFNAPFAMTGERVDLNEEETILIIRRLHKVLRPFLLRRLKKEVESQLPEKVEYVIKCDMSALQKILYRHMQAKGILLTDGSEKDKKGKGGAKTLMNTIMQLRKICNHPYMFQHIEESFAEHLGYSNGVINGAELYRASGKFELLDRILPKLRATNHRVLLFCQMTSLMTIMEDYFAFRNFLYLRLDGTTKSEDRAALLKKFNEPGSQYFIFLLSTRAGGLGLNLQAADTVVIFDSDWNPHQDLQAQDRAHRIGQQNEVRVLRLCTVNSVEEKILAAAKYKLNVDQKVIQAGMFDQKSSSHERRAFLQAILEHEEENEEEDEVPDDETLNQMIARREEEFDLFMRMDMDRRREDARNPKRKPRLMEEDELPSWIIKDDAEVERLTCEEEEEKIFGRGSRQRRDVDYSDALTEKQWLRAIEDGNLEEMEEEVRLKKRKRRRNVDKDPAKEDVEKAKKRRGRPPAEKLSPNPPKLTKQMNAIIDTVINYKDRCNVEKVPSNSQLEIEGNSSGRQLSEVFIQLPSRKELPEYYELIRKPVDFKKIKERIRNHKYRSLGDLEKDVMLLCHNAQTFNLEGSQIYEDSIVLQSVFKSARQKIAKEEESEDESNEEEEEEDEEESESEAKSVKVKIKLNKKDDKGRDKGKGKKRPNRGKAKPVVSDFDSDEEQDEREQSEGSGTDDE

Chain of BRG-1 (P51532 whole entry): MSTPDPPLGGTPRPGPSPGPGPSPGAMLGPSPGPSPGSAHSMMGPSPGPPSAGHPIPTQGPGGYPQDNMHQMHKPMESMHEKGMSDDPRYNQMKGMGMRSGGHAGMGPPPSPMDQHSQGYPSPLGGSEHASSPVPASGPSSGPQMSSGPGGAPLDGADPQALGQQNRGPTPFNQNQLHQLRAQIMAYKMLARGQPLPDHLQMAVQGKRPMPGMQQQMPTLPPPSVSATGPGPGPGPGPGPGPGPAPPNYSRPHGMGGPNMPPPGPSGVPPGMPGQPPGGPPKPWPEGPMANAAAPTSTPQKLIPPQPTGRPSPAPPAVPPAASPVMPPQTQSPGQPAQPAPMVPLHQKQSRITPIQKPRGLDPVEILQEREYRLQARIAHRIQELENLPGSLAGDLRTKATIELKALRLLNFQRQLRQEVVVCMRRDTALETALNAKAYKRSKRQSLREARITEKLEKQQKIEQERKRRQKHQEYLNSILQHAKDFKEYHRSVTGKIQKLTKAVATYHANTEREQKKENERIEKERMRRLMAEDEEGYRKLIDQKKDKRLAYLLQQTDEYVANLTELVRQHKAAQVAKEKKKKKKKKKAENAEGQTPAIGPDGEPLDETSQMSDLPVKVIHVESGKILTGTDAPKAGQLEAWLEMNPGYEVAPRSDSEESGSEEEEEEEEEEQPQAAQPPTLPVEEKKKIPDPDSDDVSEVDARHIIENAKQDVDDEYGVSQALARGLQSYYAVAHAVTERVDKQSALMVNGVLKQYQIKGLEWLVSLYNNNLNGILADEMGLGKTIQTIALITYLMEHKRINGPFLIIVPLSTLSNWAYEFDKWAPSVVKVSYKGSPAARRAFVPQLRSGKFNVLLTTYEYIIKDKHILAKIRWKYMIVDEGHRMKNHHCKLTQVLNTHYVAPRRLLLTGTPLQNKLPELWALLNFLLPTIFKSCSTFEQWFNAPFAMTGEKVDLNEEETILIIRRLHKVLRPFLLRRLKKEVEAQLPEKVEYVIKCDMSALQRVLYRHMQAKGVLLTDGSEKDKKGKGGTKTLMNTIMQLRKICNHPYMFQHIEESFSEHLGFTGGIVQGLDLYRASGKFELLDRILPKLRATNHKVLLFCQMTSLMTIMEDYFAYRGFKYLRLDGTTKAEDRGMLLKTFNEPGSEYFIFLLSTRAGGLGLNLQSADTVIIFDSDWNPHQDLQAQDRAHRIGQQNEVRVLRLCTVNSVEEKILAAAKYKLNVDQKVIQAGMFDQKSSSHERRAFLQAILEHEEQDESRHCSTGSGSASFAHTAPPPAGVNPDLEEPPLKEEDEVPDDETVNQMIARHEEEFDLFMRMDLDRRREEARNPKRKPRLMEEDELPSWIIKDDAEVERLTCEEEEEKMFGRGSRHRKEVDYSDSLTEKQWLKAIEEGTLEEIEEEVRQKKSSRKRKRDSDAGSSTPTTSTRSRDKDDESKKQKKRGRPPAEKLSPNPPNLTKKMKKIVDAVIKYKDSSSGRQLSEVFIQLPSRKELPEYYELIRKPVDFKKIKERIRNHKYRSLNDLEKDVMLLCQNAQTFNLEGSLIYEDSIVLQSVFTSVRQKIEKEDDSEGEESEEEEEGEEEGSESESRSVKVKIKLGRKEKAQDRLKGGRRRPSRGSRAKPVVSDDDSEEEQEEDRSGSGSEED

| Compound | IC50 (BRG-1) | Emax (BRG-1) | BRM Max % Inhibition (BRM) | IC50 (BRM) |
| --- | --- | --- | --- | --- |
| CN(C)c1cccc(-c2ccc3nnc(CNC(=O)c4ccc5c(c4)[C@](C)(C#N)COC5)cc3n2)n1 [Compound 223] | < 100 nM | 101% | 101% | < 0.1 µM |
| CN(C)c1cccc(-c2ccc3cnc(CNC(=O)c4cc(F)c5c(c4)[C@](F)(C(F)F)COC5)cc3n2)n1 [Compound 226] | 100 to 500 nM | 85% | 98% | 0.1 to 0.5 µM |
| CN(C)c1cccc(-c2ccc3cnc(CNC(=O)c4cnc5c(c4)[C@@](F)(C(F)F)COC5)cc3n2)n1 [Compound 227] | 100 to 500 nM | 94% | 99% | < 0.1 µM |
| O=C(NCc1cc2nc(-c3cncc(C4CC4)n3)ccc2cn1)c1cnc2c(c1)[C@](F)(C(F)F)COC2 [Compound 228] | 100 to 500 nM | 98% | 100% | < 0.1 µM |
| O=C(NCc1cc2nc(-c3cncc(C4CC4)n3)ccc2cn1)c1cnc2c(c1)[C@@](F)(C(F)F)COC2 [Compound 229] | 100 to 500 nM | 90% | 100% | < 0.1 µM |
| C[C@@]1(C#N)COCc2ccc(C(=O)NCc3cc4c(cn3)CCN(c3ccc(=O)n(C5CC5)n3)C4)cc21 [Compound 230] | 500 to 1000 nM | 62% | 97% | 0.1 to 0.5 µM |
| Cc1cc(-c2ccc3cnc(CNC(=O)c4ccc5c(c4)[C@](C)(C#N)COC5)cc3n2)on1 [Compound 231] | > 1000 nM | 46% | 91% | 0.1 to 0.5 µM |
| C[C@@]1(C#N)COCc2ccc(C(=O)NCc3cc4nc(-c5ccnc(N6CCC6)c5F)sc4cn3)cc21 [Compound 235] | 100 to 500 nM | 72% | 99% | < 0.1 µM |
| O=C(NCc1cc2nc(-c3cncc(C4CC4)n3)ccc2cn1)c1cc(F)c2c(c1)[C@](F)(C(F)F)COC2 [Compound 237] | 100 to 500 nM | 92% | 100% | < 0.1 µM |
| C[C@@]1(F)COCc2ccc(C(=O)NCc3cc4nc(-c5cccc(N6CCCC6=O)n5)ccc4nn3)cc21 [Compound 239] | 100 to 500 nM | 93% | 101% | < 0.1 µM |
| C[C@@]1(F)COCc2ccc(C(=O)NCc3cc4nc(-c5cccc(C6CC6)n5)ccc4nn3)cc21 [Compound 240] | 100 to 500 nM | 89% | 101% | < 0.1 µM |
| O=C(NCc1cc2nc(-c3cncc(C4CC4)n3)ccc2cn1)c1cnc2c(c1)[C@](F)(C(F)F)CCO2 [Compound 241] | 500 to 1000 nM | 63% | 97% | 0.1 to 0.5 µM |
| C[C@@]1(C#N)COCc2ccc(C(=O)NCc3cc4nc(-c5ccccc5)sc4nn3)cc21 [Compound 242] | 500 to 1000 nM | 51% | 94% | 0.1 to 0.5 µM |
| O=C(NCc1cc2nc(-c3cncc(C4CC4)n3)ccc2cn1)c1cnc2c(c1)[C@@](F)(C(F)F)CCO2 [Compound 243] | > 1000 nM | 9% | 81% | 0.1 to 0.5 µM |
| O=C(NCc1cc2nc(-c3cncc(C4CC4)n3)ccc2cn1)c1cnc2c(c1)C(O)(C(F)F)COC2 (stereo not shown) [Compound 246] | > 1000 nM | 23% | 88% | 0.1 to 0.5 µM |
| C[C@@]1(C#N)COCc2ccc(C(=O)NCc3cc4c(nn3)CCN(c3cncc(N5CCC5)n3)C4)cc21 [Compound 247] | > 1000 nM | 65% | 93% | 0.1 to 0.5 µM |
| CN(C)c1cccc(-c2ccc3cnc(CNC(=O)c4ccc5c(c4)[C@](C)(F)COC5)cc3n2)n1 [Compound 248] | 100 to 500 nM | 100% | 98% | < 0.1 µM |
| COc1nn(C)cc1-c1ccc2cnc(CNC(=O)c3ccc4c(c3)[C@](C)(F)COC4)cc2c1 [Compound 251] | 100 to 500 nM | 91% | 100% | < 0.1 µM |
| C[C@]1(F)CCCc2ncc(C(=O)NCc3cc4nc(-c5cncc(C6CC6)n5)ccc4cn3)cc21 [Compound 252] | > 1000 nM | 33% | 87% | 0.1 to 0.5 µM |
| C[C@]1(C#N)CCOc2ncc(C(=O)NCc3cc4nc(-c5cncc(C6CC6)n5)ccc4cn3)cc21 [Compound 253] | 500 to 1000 nM | 57% | 92% | 0.1 to 0.5 µM |
| C[C@@]1(F)COCc2ccc(C(=O)NCc3cc4nc(-c5cccc(C(F)F)n5)ccc4nn3)cc21 [Compound 254] | 500 to 1000 nM | 77% | 99% | < 0.1 µM |
| COc1ccccc1-c1cnc2cnc(CNC(=O)c3ccc4c(c3)[C@](C)(F)COC4)cc2n1 [Compound 256] | 500 to 1000 nM | 76% | 98% | < 0.1 µM |
| C[C@@]1(F)COCc2ccc(C(=O)NCc3cc4cc(-c5ccnn(C6CC6)c5=O)ccc4cn3)cc21 [Compound 257] | 500 to 1000 nM | 65% | 92% | 0.1 to 0.5 µM |
| CNC(=O)c1ccc(-c2ccc3cnc(CNC(=O)c4ccc5c(c4)[C@](C)(F)COC5)cc3n2)cn1 [Compound 260] | > 1000 nM | 42% | 83% | 0.1 to 0.5 µM |
| CO[C@H]1CCN(c2cncc(-c3ccc4cnc(CNC(=O)c5ccc6c(c5)[C@](C)(F)COC6)cc4c3)n2)C1 [Compound 265] | < 100 nM | 99% | 104% | < 0.1 µM |
| CO[C@@H]1CCN(c2cncc(-c3ccc4cnc(CNC(=O)c5ccc6c(c5)[C@](C)(F)COC6)cc4c3)n2)C1 [Compound 266] | 100 to 500 nM | 96% | 103% | < 0.1 µM |

Next, values leading:

| IC50 (BRG-1) | Emax (BRG-1) | BRM Max % Inhibition (BRM) | IC50 (BRM) | Compound |
| --- | --- | --- | --- | --- |
| 500 to 1000 nM | 83% | 98% | < 0.1 µM | [2H]C1([2H])OCc2ncc(C(=O)NCc3cc4nc(-c5cncc(C6CC6)n5)ccc4cn3)cc2[C@]1(C)F [Compound 222] |
| < 100 nM | 100% | 101% | < 0.1 µM | CN(C)c1cccc(-c2ccc3cnc(CNC(=O)c4cnc5c(c4)[C@](F)(C(F)F)COC5)cc3n2)n1 [Compound 224] |
| 500 to 1000 nM | 72% | 92% | 0.1 to 0.5 µM | COc1nn(C2CC2)cc1-c1ccc2cnc(CNC(=O)c3ccc4c(c3)[C@](C)(C#N)COC4)cc2n1 [Compound 225] |
| 500 to 1000 nM | 74% | 98% | 0.1 to 0.5 µM | C[C@@]1(F)COCc2ccc(C(=O)NCc3cc4nc(-c5ccc(=O)n(C6CC6)n5)ccc4cn3)cc21 [Compound 233] |
| 500 to 1000 nM | 49% | 96% | 0.1 to 0.5 µM | C[C@@]1(C#N)COCc2ccc(C(=O)NCc3cc4c(nn3)CCN(c3cccc(N5CCC5)n3)C4)cc21 [Compound 234] |
| 100 to 500 nM | 90% | 100% | < 0.1 µM | COc1nn(C2COC2)cc1-c1ccc2cnc(CNC(=O)c3ccc4c(c3)[C@](C)(C#N)COC4)cc2n1 [Compound 236] |
| < 100 nM | 96% | 100% | < 0.1 µM | CN(C)c1cccc(-c2ccc3nnc(CNC(=O)c4ccc5c(c4)[C@](C)(F)COC5)cc3n2)n1 [Compound 238] |
| > 1000 nM | 25% | 88% | 0.1 to 0.5 µM | C[C@@]1(F)COCc2ncc(C(=O)NCc3cc4nc(-c5ccnc(N6CCC6)n5)sc4cn3)cc21 [Compound 244] |
| 500 to 1000 nM | 75% | 96% | 0.1 to 0.5 µM | C[C@@]1(F)COCc2ccc(C(=O)NCc3cc4nc(-c5ccnc(N6CCC6)n5)sc4cn3)cc21 [Compound 245] |
| 500 to 1000 nM | 71% | 97% | 0.1 to 0.5 µM | C[C@@]1(F)COCc2ccc(C(=O)NCc3cc4nc(-c5cccc(C6(O)CCOC6)n5)ccc4cn3)cc21 (stereo partly shown) [Compound 249] |
| > 1000 nM | 25% | 87% | 0.1 to 0.5 µM | COc1ccccc1N1CCc2cnc(CNC(=O)c3ccc4c(c3)[C@](C)(C#N)COC4)cc2C1 [Compound 250] |
| 100 to 500 nM | 90% | 100% | < 0.1 µM | C[C@@]1(F)COCc2ccc(C(=O)NCc3cc4nc(-c5cncc(C6CC6)n5)ccc4nn3)cc21 [Compound 255] |
| 100 to 500 nM | 75% | 96% | 0.1 to 0.5 µM | C[C@@]1(C#N)COCc2ccc(C(=O)NCc3cc4c(cn3)CCN(c3ccnc(N5CCC5)c3F)C4)cc21 [Compound 258] |
| 100 to 500 nM | 88% | 99% | < 0.1 µM | C[C@@]1(F)COCc2ccc(C(=O)NCc3cc4nc(-c5ccnc(N6CCOCC6)n5)ccc4cn3)cc21 [Compound 259] |
| 500 to 1000 nM | 61% | 94% | 0.1 to 0.5 µM | COc1nn(C)cc1-c1cnc2cnc(CNC(=O)c3ccc4c(c3)[C@](C)(C#N)COC4)cc2c1 [Compound 261] |
| < 100 nM | 99% | 102% | < 0.1 µM | C[C@@]1(C#N)COCc2ccc(C(=O)NCc3cc4cc(-c5cccc(C6(O)CC6)n5)ccc4cn3)cc21 [Compound 262] |
| 500 to 1000 nM | 72% | 98% | 0.1 to 0.5 µM | Cc1cc(-c2ccc3cnc(CNC(=O)c4ccc5c(c4)[C@](C)(C#N)COC5)cc3n2)n[nH]1 [Compound 264] |
